Data set [1] concerns Yap1 mRNA. Put plainly: Antisense inhibition of human Yap1 in A-431 cells by cEt gapmers, single dose (Example 3, RTS36584). The class given is cell-based. The procedure, abridged:
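Read-out is Yap1 mRNA as percent of untreated control, by quantitative RT-PCR normalized to total RNA (RiboGreen). Cells (A-431) received 2,000 nM of 3-10-3 cEt phosphorothioate gapmer via free uptake for roughly 48 hours.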

The subject of data set [2] is Yap1 mRNA. Nature of the data set: Dose-dependent inhibition of human Yap1 in A-431 cells (Example 8, 10,000 cells per well, RTS4814). The class given is cell-based. The conditions noted are these: for % UTC (Yap1 mRNA) / IC50: A-431 cells; for Yap1 mRNA, % UTC: A-431 cells, 10,000 cells per well. The procedure, abridged: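 Yap1 mRNA, normalized to RIBOGREEN total RNA and expressed as % untreated control, was read with RTS4814 about 48 h after free-uptake oligonucleotide treatment of A-431 cells at 10,000 cells/well. IC50 derived by linear regression of log/linear data.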

The mark [3] stands for this setting: Table 35, Yap1 mRNA as percent of untreated control, 3-10-3 cEt gapmers targeting SEQ ID NO: 1 and 2, single dose.
Setting [4] is: 31.3 nM, free uptake, approximately 48 hours, RTS4814.
Setting [5] is: 125.0 nM, free uptake, approximately 48 hours, RTS4814.
Where [6] appears, read: 500.0 nM, free uptake, approximately 48 hours, RTS4814.
Where [7] appears, read: 2000.00 nM, free uptake, approximately 48 hours, RTS4814.
The mark [8] stands for this setting: free uptake, approximately 48 hours, RTS4814, linear regression on log/linear plot.
The mark [9] stands for this setting: Table 27, Yap1 mRNA by 3-10-3 cEt gapmers targeting SEQ ID NO.: 1, and 2, percent of untreated control.
[10] abbreviates: Table 29, Yap1 mRNA as percent of untreated control, 3-10-3 cEt gapmers targeting SEQ ID NO.: 1, and 2.

Strand notation (5' to 3'): a small letter for the sugar, then the base; units joined by * are phosphorothioate-linked, units joined directly phosphodiester-linked; [ ] holds rarer units or linkages, { } end groups; capitals alone tell only the bases. k = constrained ethyl (cEt); [5mC] = 5-methylcytosine; d = 2'-deoxy (DNA)

One may read the IC50 as the concentration that inhibits the measured activity by half. Low values mean greater potency, high ones weaker potency. “1074421 (kT*kG*kA*dT*dT*d[5mC]*dT*dT*dT*dA*dG*dA*dG*k[5mC]*k[5mC]*kA; antisense) [compound 1074421]”: in the data set with Yap1 mRNA [1] (setting [3]), the “YAP1 (% UTC)” value is given as 3 % UTC. Besides, the “% UTC (Yap1 mRNA)” value with Yap1 mRNA [2] (31.3 nM) is listed as 61 % UTC; with Yap1 mRNA [2] (125.0 nM), 29 % UTC; in the data set on Yap1 mRNA [2] (500.0 nM), 8 % UTC; in the data set with Yap1 mRNA [2] (2000.00 nM), 5 % UTC. The same substance displayed an IC50 in the data set on Yap1 mRNA [2] (Yap1 mRNA) of 40 nM.

Turning to “1074444 (kA*k[5mC]*kA*dT*dT*dT*dT*dT*dG*dG*d[5mC]*dT*dT*kG*kT*k[5mC]; antisense) [compound 1074444]”, the “YAP1 (% UTC)” value in the data set on Yap1 mRNA [1] (Table 26, Yap1 mRNA by 3-10-3 cEt gapmers targeting SEQ ID NO.: 1, and 2, percent of untreated control) was 3 % UTC. The “Yap1 mRNA, % UTC” value in the data set with Yap1 mRNA [2] (setting [4]) was found to be 49 % UTC; with Yap1 mRNA [2] (setting [5]) it was 21 % UTC; in the data set on Yap1 mRNA [2] (setting [6]) it was 7 % UTC; with Yap1 mRNA [2] (setting [7]), 4 % UTC. The half-inhibitory concentration (IC50) in the data set with Yap1 mRNA [2] (setting [8]) is < 20 nM.

For “1074445 (kT*kG*kA*dT*dA*dG*d[5mC]*dA*d[5mC]*dT*dA*dG*dG*kA*kG*kG; antisense) [compound 1074445]”, the “YAP1 (% UTC)” value with Yap1 mRNA [1] (setting [9]) came to 6 % UTC. The “Yap1 mRNA, % UTC” value with Yap1 mRNA [2] (setting [4]) amounted to 57 % UTC; in the data set with Yap1 mRNA [2] (setting [5]), 19 % UTC; with Yap1 mRNA [2] (setting [6]), 8 % UTC; in the data set on Yap1 mRNA [2] (setting [7]), 6 % UTC. Further, the IC50 with Yap1 mRNA [2] (setting [8]) was < 20 nM.

Take “1074446 (kA*kT*kG*dA*dT*dA*dG*d[5mC]*dA*d[5mC]*dT*dA*dG*kG*kA*kG; antisense) [compound 1074446]”: the “YAP1 (% UTC)” value with Yap1 mRNA [1] (Table 28, Yap1 mRNA as percent of untreated control, 3-10-3 cEt gapmers targeting SEQ ID NO.: 1, and 2) was 3 % UTC. The “Yap1 mRNA, % UTC” value stood at 39 % UTC in the data set with Yap1 mRNA [2] (setting [4]), 11 % UTC with Yap1 mRNA [2] (setting [5]), 5 % UTC in the data set on Yap1 mRNA [2] (setting [6]) and 3 % UTC with Yap1 mRNA [2] (setting [7]). For the same substance, in the data set on Yap1 mRNA [2] (setting [8]), the IC50 was < 20 nM.

Turning to “1074447 (kA*kA*kT*dG*dA*dT*dA*dG*d[5mC]*dA*d[5mC]*dT*dA*kG*kG*kA; antisense) [compound 1074447]”, the “YAP1 (% UTC)” value in the data set with Yap1 mRNA [1] (setting [10]) is 4 % UTC. Further, the “Yap1 mRNA, % UTC” value in the data set on Yap1 mRNA [2] (setting [4]) came to 47 % UTC; in the data set with Yap1 mRNA [2] (setting [5]), 20 % UTC; in the data set on Yap1 mRNA [2] (setting [6]), 8 % UTC; in the data set on Yap1 mRNA [2] (setting [7]), 5 % UTC. Besides, the IC50 in the data set on Yap1 mRNA [2] (setting [8]) is < 20 nM.

For “1074452 (kT*kG*kA*d[5mC]*dT*dA*dA*dT*dG*dA*dT*dA*dG*k[5mC]*kA*k[5mC]; antisense) [compound 1074452]”, in the data set on Yap1 mRNA [1] (Table 34, Yap1 mRNA as percent of untreated control, 3-10-3 cEt gapmers targeting SEQ ID NO: 1 and 2, single dose), the “YAP1 (% UTC)” value was determined as 3 % UTC. The “% UTC (Yap1 mRNA)” value in the data set with Yap1 mRNA [2] (31.3 nM) is given as 88 % UTC; in the data set on Yap1 mRNA [2] (125.0 nM), 28 % UTC; in the data set on Yap1 mRNA [2] (500.0 nM), 9 % UTC; in the data set on Yap1 mRNA [2] (2000.00 nM) it was 5 % UTC. In the data set on Yap1 mRNA [2] (Yap1 mRNA), this substance yielded an IC50 of 100 nM.

Turning to “1074453 (kG*kT*kG*dA*d[5mC]*dT*dA*dA*dT*dG*dA*dT*dA*kG*k[5mC]*kA; antisense) [compound 1074453]”, in the data set on Yap1 mRNA [1] (setting [3]), the “YAP1 (% UTC)” value is listed as 4 % UTC. Further, the “% UTC (Yap1 mRNA)” value in the data set on Yap1 mRNA [2] (31.3 nM) came to 51 % UTC; in the data set with Yap1 mRNA [2] (125.0 nM), 18 % UTC; in the data set with Yap1 mRNA [2] (500.0 nM), 9 % UTC; in the data set on Yap1 mRNA [2] (2000.00 nM), 5 % UTC. For the same substance, the half-maximal inhibitory concentration (IC50) with Yap1 mRNA [2] (Yap1 mRNA) was < 20 nM.

Take “1074477 (kG*kT*kT*d[5mC]*d[5mC]*dG*dA*d[5mC]*dA*dA*dA*dA*d[5mC]*k[5mC]*kA*kA; antisense) [compound 1074477]”: the “YAP1 (% UTC)” value in the data set on Yap1 mRNA [1] (setting [9]) was determined as 10 % UTC. Further, the “Yap1 mRNA, % UTC” value in the data set with Yap1 mRNA [2] (setting [4]) was 77 % UTC; in the data set with Yap1 mRNA [2] (setting [5]), 48 % UTC; in the data set on Yap1 mRNA [2] (setting [6]) it was 20 % UTC; with Yap1 mRNA [2] (setting [7]) it was 12 % UTC. In addition, in the data set on Yap1 mRNA [2] (setting [8]), inhibition was half-maximal at 100 nM (IC50).

Take “1074479 (k[5mC]*kA*kT*dT*dT*dG*d[5mC]*d[5mC]*dT*dA*dG*dG*dT*kT*k[5mC]*k[5mC]; antisense) [compound 1074479]”: the “YAP1 (% UTC)” value with Yap1 mRNA [1] (setting [10]) was 2 % UTC. Also, the “Yap1 mRNA, % UTC” value was determined as 23 % UTC with Yap1 mRNA [2] (setting [4]), 8 % UTC in the data set with Yap1 mRNA [2] (setting [5]), 4 % UTC in the data set with Yap1 mRNA [2] (setting [6]) and 4 % UTC in the data set with Yap1 mRNA [2] (setting [7]). In addition, in the data set on Yap1 mRNA [2] (setting [8]), the IC50 was < 20 nM.

Values taken from patent publication US11214803B2, “Modulators of YAP1 expression” (Ionis Pharmaceuticals, Inc., priority 2019, dated 2022).
